Test [1] concerns Jurkat E6.1. The experiment in a line: Cytotoxicity against human Jurkat E6.1 cells assessed as reduction in cell viability. The format is functional, cell-based.
The test system of test [2] is U-937. Kind of test: Cytotoxicity against human U-937 cells assessed as reduction in cell viability. The format is functional, cell-based.
The test system of test [3] is MOLT-4. The experiment in a line: Cytotoxicity against human MOLT-4 cells assessed as reduction in cell viability. The format is functional, cell-based.
Test [4] concerns the target Histone deacetylase. Kind of test: Inhibition of HDAC (unknown origin) using Fluoro-Substrate Peptide as substrate by fluorescence assay. The format is protein assay, Homo sapiens.
The target in test [5] is T1, Histone deacetylase 8 (Homo sapiens, UniProt Q9BY41).
T1 sequence (Q9BY41 whole entry): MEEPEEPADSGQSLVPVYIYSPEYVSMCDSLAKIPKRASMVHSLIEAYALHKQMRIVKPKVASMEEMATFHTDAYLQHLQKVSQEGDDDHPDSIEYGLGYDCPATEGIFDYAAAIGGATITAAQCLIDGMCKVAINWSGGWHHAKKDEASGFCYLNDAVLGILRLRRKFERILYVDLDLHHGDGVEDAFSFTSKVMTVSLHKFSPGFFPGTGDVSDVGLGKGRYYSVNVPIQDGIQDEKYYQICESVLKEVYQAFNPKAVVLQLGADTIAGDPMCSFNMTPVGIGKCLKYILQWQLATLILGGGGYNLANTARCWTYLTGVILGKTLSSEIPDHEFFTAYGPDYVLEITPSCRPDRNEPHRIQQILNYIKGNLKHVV
The experiment in a line: Inhibition of HDAC8 (unknown origin) by fluorescence based assay.

SMILES strings stand for the structures.

For orientation: IC50 means the midpoint of a concentration-inhibition curve. As to `CCCCNC(=O)[C@H](CCC(=O)O)NC(=O)Cc1ccccc1Cl`, the half-maximal inhibitory concentration (IC50) is no more than 35 µM in test [1], greater than 35 µM in test [2] and no more than 35 µM in test [3].

For the compound `CC(C)CNC(=O)[C@H](CCC(=O)O)NC(=O)Cc1ccccc1Br`, the half-inhibitory concentration (IC50) in test [1] was less than 35 µM; in test [2], greater than 35 µM; in test [3] it was less than 35 µM.

As for `O=C(O)CC[C@H](NC(=O)Cc1ccccc1Br)C(=O)Nc1ccccc1`, the half-inhibitory concentration (IC50) in test [1] was greater than 35 µM; in test [2], greater than 35 µM; in test [3], less than 35 µM.

In the case of `CCCCCCNC(=O)[C@H](CCC(=O)O)NC(=O)Cc1ccccc1Br`, the IC50 in test [1], in test [2] and in test [3] was less than 35 µM each time.

On to `Cc1ccccc1CC(=O)N[C@@H](CCC(=O)O)C(=O)Nc1ccccc1`, for which the IC50 in test [1], in test [2] and in test [3] was greater than 35 µM in each case.

As for `CCCNC(=O)[C@H](CCC(=O)O)NC(=O)Cc1ccc(-c2ccccc2)cc1`, the IC50 is less than 35 µM in test [1], greater than 35 µM in test [2] and less than 35 µM in test [3].

Turning to `CC(C)NC(=O)[C@H](CCC(=O)O)NC(=O)Cc1ccc(Cl)cc1`, the IC50 in test [1], in test [2] and in test [3] was no more than 35 µM throughout.

On to `CCCCNC(=O)[C@H](CCC(=O)O)NC(=O)Cc1ccc([N+](=O)[O-])cc1`, for which the IC50 in test [1] is less than 35 µM; in test [2], greater than 35 µM; in test [3], less than 35 µM.

`CCCNC(=O)[C@H](CCC(=O)O)NC(=O)Cc1ccccc1`: the IC50 in test [1] was no more than 35 µM; in test [2], greater than 35 µM; in test [3], no more than 35 µM.

Take `CCCNC(=O)[C@H](CCC(=O)O)NC(=O)Cc1ccc(Br)cc1`: the figures for the IC50 in test [1], in test [2] and in test [3] were no more than 35 µM, greater than 35 µM and no more than 35 µM, respectively.

For the compound `CCCCCNC(=O)[C@H](CCC(=O)O)NC(=O)Cc1ccccc1Br`, the IC50 in test [1] is greater than 35 µM; in test [2] it was greater than 35 µM; in test [3] it was less than 35 µM.

Take `CCCCCNC(=O)[C@H](CCC(=O)O)NC(=O)Cc1ccccc1`: the values for the IC50 in test [1], in test [2] and in test [3] were no more than 35 µM, greater than 35 µM and no more than 35 µM, respectively.

Turning to `O=C(O)CC[C@H](NC(=O)Cc1ccc([N+](=O)[O-])cc1)C(=O)NCc1ccccc1`, the IC50 in test [1] was less than 35 µM; in test [2] it was greater than 35 µM; in test [3], less than 35 µM.

As for `CC(C)CNC(=O)[C@H](CCC(=O)O)NC(=O)Cc1ccccc1`, the IC50 in test [1], in test [2] and in test [3] was greater than 35 µM in each case.

As for `CCCCCCNC(=O)[C@H](CCC(=O)O)NC(=O)Cc1ccccc1F`, the figures for the IC50 in test [1], in test [2] and in test [3] were less than 35 µM, greater than 35 µM and less than 35 µM, respectively.

For `O=C(O)CC[C@H](NC(=O)Cc1ccc(Cl)cc1)C(=O)NC1CCCCC1`, the half-maximal inhibitory concentration (IC50) in test [1] is less than 35 µM; in test [2] it was greater than 35 µM; in test [3], less than 35 µM.

For the compound `CC(C)NC(=O)[C@H](CCC(=O)O)NC(=O)Cc1ccccc1Br`, the IC50 in test [1], in test [2] and in test [3] was greater than 35 µM throughout.

On to `O=C(O)CC[C@H](NC(=O)Cc1ccc(-c2ccccc2)cc1)C(=O)NC1CCCCC1`, for which the IC50 was less than 35 µM in test [1], greater than 35 µM in test [2] and less than 35 µM in test [3].

As for `O=C(O)CC[C@H](NC(=O)Cc1ccccc1)C(=O)NCc1ccccc1`, the IC50 in test [1], in test [2] and in test [3] was greater than 35 µM in each case.

Consider `CCCNC(=O)[C@H](CCC(=O)O)NC(=O)Cc1ccc(Cl)cc1`, for which the values for the 50% inhibitory concentration (IC50) in test [1], in test [2] and in test [3] were no more than 35 µM, greater than 35 µM and greater than 35 µM, respectively.

For the compound `COc1ccc(CC(=O)N[C@@H](CCC(=O)O)C(=O)NCc2ccccc2)cc1`, the IC50 in test [1] is no more than 35 µM; in test [2], greater than 35 µM; in test [3], no more than 35 µM.

On to `CCCCNC(=O)[C@H](CCC(=O)O)NC(=O)Cc1ccccc1F`, for which the IC50 is less than 35 µM in test [1], greater than 35 µM in test [2] and greater than 35 µM in test [3].

Turning to `COc1ccc(CC(=O)N[C@@H](CCC(=O)O)C(=O)NCC(C)C)cc1`, the half-maximal inhibitory concentration (IC50) in test [1], in test [2] and in test [3] was greater than 35 µM each time.

`CC(C)(C)NC(=O)[C@H](CCC(=O)O)NC(=O)Cc1ccc(Cl)cc1`: the IC50 was less than 35 µM in test [1], greater than 35 µM in test [2] and less than 35 µM in test [3].

On to `CC(C)CNC(=O)[C@H](CCC(=O)O)NC(=O)Cc1ccccc1Cl`, for which the IC50 in test [1] is no more than 35 µM; in test [2], greater than 35 µM; in test [3], no more than 35 µM.

As to `CC(C)CNC(=O)[C@H](CCC(=O)O)NC(=O)Cc1ccc(Br)cc1`, the IC50 in test [1], in test [2] and in test [3] was greater than 35 µM in each case.

As for `CC(C)NC(=O)[C@H](CCC(=O)O)NC(=O)Cc1ccccc1F`, the IC50 in test [1], in test [2] and in test [3] was greater than 35 µM in each case.

With `CCCCCNC(=O)[C@H](CCC(=O)O)NC(=O)Cc1ccc(Cl)cc1Cl`, the half-inhibitory concentration (IC50) in test [1], in test [2] and in test [3] was less than 35 µM throughout.

On to `O=C(O)CC[C@H](NC(=O)Cc1ccccc1Cl)C(=O)NCc1ccccc1`, for which the IC50 is no more than 35 µM in test [1], greater than 35 µM in test [2] and no more than 35 µM in test [3].

Turning to `CCCCNC(=O)[C@H](CCC(=O)O)NC(=O)Cc1ccc(Br)cc1`, the IC50 in test [1] is no more than 35 µM; in test [2], greater than 35 µM; in test [3], no more than 35 µM.

In the case of `CC(C)CNC(=O)[C@H](CCC(=O)O)NC(=O)Cc1ccc(-c2ccccc2)cc1`, the IC50 in test [1], in test [2] and in test [3] was greater than 35 µM in each case.

`O=C(O)CC[C@H](NC(=O)Cc1ccccc1)C(=O)NC1CCCCC1`: the IC50 was no more than 35 µM in test [1], no more than 35 µM in test [2] and greater than 35 µM in test [3].

Consider `CCCCNC(=O)[C@H](CCC(=O)O)NC(=O)Cc1ccc(Cl)cc1Cl`, for which the IC50 in test [1] was less than 35 µM; in test [2] it was greater than 35 µM; in test [3], less than 35 µM.

Take `CCCCCNC(=O)[C@H](CCC(=O)O)NC(=O)Cc1ccccc1Cl`: the IC50 was no more than 35 µM in test [1], greater than 35 µM in test [2] and greater than 35 µM in test [3].

As to `CC(C)(C)NC(=O)[C@H](CCC(=O)O)NC(=O)Cc1ccc([N+](=O)[O-])cc1`, the IC50 is greater than 35 µM in test [1], greater than 35 µM in test [2] and less than 35 µM in test [3].

As to `CC(C)(C)NC(=O)[C@H](CCC(=O)O)NC(=O)Cc1ccccc1`, the IC50 in test [1], in test [2] and in test [3] was no more than 35 µM throughout.

For the compound `COc1ccc(CC(=O)N[C@@H](CCC(=O)O)C(=O)NC(C)(C)C)cc1`, the IC50 in test [1], in test [2] and in test [3] was greater than 35 µM each time.

In the case of `O=C(O)CC[C@H](NC(=O)Cc1ccccc1F)C(=O)Nc1ccccc1`, the IC50 is less than 35 µM in test [1], greater than 35 µM in test [2] and less than 35 µM in test [3].

With `CCCCCNC(=O)[C@H](CCC(=O)O)NC(=O)Cc1ccc([N+](=O)[O-])cc1`, the half-maximal inhibitory concentration (IC50) is less than 35 µM in test [1], greater than 35 µM in test [2] and less than 35 µM in test [3].

With `CC(C)NC(=O)[C@H](CCC(=O)O)NC(=O)Cc1ccccc1`, the IC50 is no more than 35 µM in test [1], greater than 35 µM in test [2] and no more than 35 µM in test [3].

Turning to `CCCCNC(=O)[C@H](CCC(=O)O)NC(=O)Cc1ccc(-c2ccccc2)cc1`, the IC50 in test [1] was less than 35 µM; in test [2], greater than 35 µM; in test [3], less than 35 µM.

As for `O=C(O)CC[C@H](NC(=O)Cc1ccc(Cl)cc1)C(=O)NCc1ccccc1`, the half-inhibitory concentration (IC50) is greater than 10 µM in test [4] and no more than 10 µM in test [5].

`CC(C)NC(=O)[C@H](CCC(=O)O)NC(=O)Cc1ccc(-c2ccccc2)cc1`: the figures for the IC50 in test [1], in test [2] and in test [3] were less than 35 µM, greater than 35 µM and greater than 35 µM, respectively.

Regarding `CCCCNC(=O)[C@H](CCC(=O)O)NC(=O)Cc1ccccc1`, the IC50 in test [1] was greater than 35 µM; in test [2], greater than 35 µM; in test [3] it was no more than 35 µM.

For the compound `O=C(O)CC[C@H](NC(=O)Cc1ccc(Br)cc1)C(=O)NC1CCCCC1`, the results for the IC50 in test [1], in test [2] and in test [3] were no more than 35 µM, greater than 35 µM and no more than 35 µM, respectively.

Turning to `CCCNC(=O)[C@H](CCC(=O)O)NC(=O)Cc1ccccc1F`, the IC50 in test [1], in test [2] and in test [3] was greater than 35 µM in each case.

For `CC(C)CNC(=O)[C@H](CCC(=O)O)NC(=O)Cc1ccccc1F`, the half-inhibitory concentration (IC50) in test [1] was no more than 35 µM; in test [2], greater than 35 µM; in test [3], no more than 35 µM.

Turning to `CCCCCCNC(=O)[C@H](CCC(=O)O)NC(=O)Cc1ccccc1Cl`, the IC50 in test [1], in test [2] and in test [3] was greater than 35 µM in each case.

In the case of `CCCCCNC(=O)[C@H](CCC(=O)O)NC(=O)Cc1ccc(Br)cc1`, the IC50 was no more than 35 µM in test [1], greater than 35 µM in test [2] and no more than 35 µM in test [3].

`O=C(O)CC[C@H](NC(=O)Cc1ccccc1)C(=O)Nc1ccccc1`: the IC50 in test [1], in test [2] and in test [3] was no more than 35 µM throughout.

Take `CCCCCCNC(=O)[C@H](CCC(=O)O)NC(=O)Cc1ccc2ccccc2c1`: the IC50 in test [1] is no more than 35 µM; in test [2], greater than 35 µM; in test [3], no more than 35 µM.

`CCCCCNC(=O)[C@H](CCC(=O)O)NC(=O)Cc1ccccc1F`: the IC50 in test [1] is less than 35 µM; in test [2] it was greater than 35 µM; in test [3], less than 35 µM.

Values taken from ChEMBL document CHEMBL5625174, “Are inhibitors of histone deacetylase 8 (HDAC8) effective in hematological cancers especially acute myeloid leukemia (AML) and acute lymphoblastic leukemia (ALL)?” (Eur J Med Chem, 2023).
